Values quoted from earlier work in article PMC6931124, “NPY1R-targeted peptide-mediated delivery of a dual PPARα/γ agonist to adipocytes enhances adipogenesis and prevents diabetes progression” (Molecular Metabolism, 2019).

Test system: 12-week-old db/db mice
Conditions: ref [100], cited from earlier work
Source text: In contradiction to previous tesa in vivo studies, no major improvements in hyperglycemia (serum HbA1C) and serum insulin levels were detected in the treated mice compared to the untreated animals. […] No major changes in the total serum glucose occurred and the insulin levels remained unchanged as the mice adapted to the amount of glucose in their blood. An additional ...

## COc1ccc(OC(=O)N(CC(=O)O)Cc2ccc(OCCc3nc(-c4ccccc4)oc3C)cc2)cc1 [muraglitazar]
2–4 weeks
  control of glucose and insulin levels, 2–4 weeks: treatment for 2–4 weeks did
One week
  control of glucose and insulin levels, one week: did not lead to significant effects
